Assays:
Experiment in all cases: relative viability (nuclei count vs DMSO), 5 days (fraction); higher = more cells survive
[1] = tested on: NCI-H358
In short: (§1)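 Dosing by pin tool came one day after lung cancer cell lines were seeded in 1536-well plates, using either one drug or a fixed anchor-drug dose plus five library-drug doses (not always all listed) in √10 steps. After 5 days, nuclei were counted on 4× images. Relative viability is treated-well nuclei count divided by vehicle-well nuclei count, and values are medians of duplicate plates.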

[2] = tested on: NCI-H1650
In short: as §1

[3] = tested on: NCI-H2347
In short: as §1

[4] = tested on: SW 1573
In short: as §1

[5] = tested on: LXF-289
In short: as §1

[6] = tested on: PC-14
In short: as §1

[7] = tested on: NCI-H2342
In short: as §1

[8] = tested on: NCI-H1563
In short: as §1

[9] = tested on: SK-LU-1
In short: as §1

[10] = tested on: LCLC-97TM1
In short: as §1

[11] = tested on: NCI-H647
In short: as §1

[12] = tested on: NCI-H1993
In short: as §1

[13] = tested on: NCI-H2009
In short: as §1

[14] = tested on: H3255
In short: as §1

[15] = tested on: HOP-62
In short: as §1

[16] = tested on: NCI-H2023
In short: as §1

[17] = tested on: EMC-BAC-2
In short: as §1

[18] = tested on: NCI-H1915
In short: as §1

[19] = tested on: BEN
In short: as §1

[20] = tested on: NCI-H661
In short: as §1

[21] = tested on: NCI-H322M
In short: as §1

[22] = tested on: NCI-H2085
In short: as §1

[23] = tested on: NCI-H2126
In short: as §1

## COc1cc(N2CCC(C(N)=O)CC2)ccc1Nc1nc(N)c(Cl)c(Nc2ccccc2S(=O)(=O)C(C)C)n1 [HG-5-88-01] + Nc1nc2[nH]cc(CCc3ccc(C(=O)N[C@@H](CCC(=O)O)C(=O)O)cc3)c2c(=O)[nH]1 [Pemetrexed] (partner 0.2 µM)
[1]; first compound 0.04 µM
  relative viability: 0.145
[1]; first compound 0.1265 µM
  relative viability: 0.174
[1]; first compound 0.4 µM
  relative viability: 0.162
[1]; first compound 1.265 µM
  relative viability: 0.132
[1]; first compound 4 µM
  relative viability: 0.148
[2]; first compound 0.04 µM
  relative viability: 0.352
[2]; first compound 0.1265 µM
  relative viability: 0.36
[2]; first compound 0.4 µM
  relative viability: 0.346
[2]; first compound 1.265 µM
  relative viability: 0.343
[2]; first compound 4 µM
  relative viability: 0.354
[3]; first compound 0.04 µM
  relative viability: 0.413
[3]; first compound 0.1265 µM
  relative viability: 0.399
[3]; first compound 0.4 µM
  relative viability: 0.433
[3]; first compound 1.265 µM
  relative viability: 0.424
[3]; first compound 4 µM
  relative viability: 0.441
[4]; first compound 0.04 µM
  relative viability: 0.871
[4]; first compound 0.1265 µM
  relative viability: 0.79
[4]; first compound 0.4 µM
  relative viability: 0.689
[4]; first compound 1.265 µM
  relative viability: 0.777
[4]; first compound 4 µM
  relative viability: 0.823
[5]; first compound 0.04 µM
  relative viability: 0.931
[5]; first compound 0.1265 µM
  relative viability: 0.933
[5]; first compound 0.4 µM
  relative viability: 0.887
[5]; first compound 1.265 µM
  relative viability: 0.93
[5]; first compound 4 µM
  relative viability: 0.926
[6]; first compound 0.04 µM
  relative viability: 0.124
[6]; first compound 0.1265 µM
  relative viability: 0.114
[6]; first compound 0.4 µM
  relative viability: 0.0722
[6]; first compound 1.265 µM
  relative viability: 0.129
[6]; first compound 4 µM
  relative viability: 0.074
[7]; first compound 0.04 µM
  relative viability: 0.664
[7]; first compound 0.1265 µM
  relative viability: 0.769
[7]; first compound 0.4 µM
  relative viability: 0.704
[7]; first compound 4 µM
  relative viability: 0.856
[8]; first compound 0.04 µM
  relative viability: 0.798
[8]; first compound 0.1265 µM
  relative viability: 0.754
[8]; first compound 0.4 µM
  relative viability: 0.767
[8]; first compound 1.265 µM
  relative viability: 0.652
[8]; first compound 4 µM
  relative viability: 0.973
[9]; first compound 0.04 µM
  relative viability: 0.919
[9]; first compound 0.1265 µM
  relative viability: 0.956
[9]; first compound 0.4 µM
  relative viability: 0.925
[9]; first compound 1.265 µM
  relative viability: 1.01
[9]; first compound 4 µM
  relative viability: 0.866
[10]; first compound 0.04 µM
  relative viability: 0.208
[10]; first compound 0.1265 µM
  relative viability: 0.179
[10]; first compound 0.4 µM
  relative viability: 0.132
[10]; first compound 1.265 µM
  relative viability: 0.155
[10]; first compound 4 µM
  relative viability: 0.131
[11]; first compound 0.04 µM
  relative viability: 0.159
[11]; first compound 0.1265 µM
  relative viability: 0.194
[11]; first compound 1.265 µM
  relative viability: 0.184
[11]; first compound 4 µM
  relative viability: 0.157
[12]; first compound 0.04 µM
  relative viability: 0.56
[12]; first compound 0.1265 µM
  relative viability: 0.577
[12]; first compound 0.4 µM
  relative viability: 0.552
[12]; first compound 4 µM
  relative viability: 0.554
[13]; first compound 0.04 µM
  relative viability: 1.01
[13]; first compound 0.1265 µM
  relative viability: 1.03
[13]; first compound 0.4 µM
  relative viability: 0.959
[13]; first compound 1.265 µM
  relative viability: 0.963
[13]; first compound 4 µM
  relative viability: 0.975
[14]; first compound 0.04 µM
  relative viability: 0.578
[14]; first compound 0.1265 µM
  relative viability: 0.571
[14]; first compound 0.4 µM
  relative viability: 0.54
[14]; first compound 4 µM
  relative viability: 0.501
[15]; first compound 0.04 µM
  relative viability: 0.319
[15]; first compound 0.1265 µM
  relative viability: 0.297
[15]; first compound 0.4 µM
  relative viability: 0.288
[15]; first compound 1.265 µM
  relative viability: 0.381
[15]; first compound 4 µM
  relative viability: 0.341
[16]; first compound 0.04 µM
  relative viability: 0.231
[16]; first compound 0.1265 µM
  relative viability: 0.23
[16]; first compound 0.4 µM
  relative viability: 0.175
[16]; first compound 1.265 µM
  relative viability: 0.165
[16]; first compound 4 µM
  relative viability: 0.171
[17]; first compound 0.04 µM
  relative viability: 0.416
[17]; first compound 0.1265 µM
  relative viability: 0.432
[17]; first compound 0.4 µM
  relative viability: 0.385
[17]; first compound 1.265 µM
  relative viability: 0.461
[17]; first compound 4 µM
  relative viability: 0.477
[18]; first compound 0.04 µM
  relative viability: 0.471
[18]; first compound 0.1265 µM
  relative viability: 0.5
[18]; first compound 0.4 µM
  relative viability: 0.352
[18]; first compound 1.265 µM
  relative viability: 0.541
[18]; first compound 4 µM
  relative viability: 0.441
[19]; first compound 0.04 µM
  relative viability: 0.76
[19]; first compound 0.1265 µM
  relative viability: 0.648
[19]; first compound 0.4 µM
  relative viability: 0.717
[19]; first compound 1.265 µM
  relative viability: 0.687
[19]; first compound 4 µM
  relative viability: 0.711
[20]; first compound 0.04 µM
  relative viability: 0.909
[20]; first compound 0.1265 µM
  relative viability: 0.931
[20]; first compound 0.4 µM
  relative viability: 0.883
[20]; first compound 1.265 µM
  relative viability: 0.974
[20]; first compound 4 µM
  relative viability: 0.965
[21]; first compound 0.04 µM
  relative viability: 0.638
[21]; first compound 0.1265 µM
  relative viability: 0.536
[21]; first compound 0.4 µM
  relative viability: 0.607
[21]; first compound 1.265 µM
  relative viability: 0.55
[21]; first compound 4 µM
  relative viability: 0.509
[22]; first compound 0.04 µM
  relative viability: 0.911
[22]; first compound 0.1265 µM
  relative viability: 0.986
[22]; first compound 0.4 µM
  relative viability: 0.864
[22]; first compound 1.265 µM
  relative viability: 0.861
[22]; first compound 4 µM
  relative viability: 0.698
[23]; first compound 0.04 µM
  relative viability: 0.644
[23]; first compound 0.1265 µM
  relative viability: 0.667
[23]; first compound 0.4 µM
  relative viability: 0.68
[23]; first compound 1.265 µM
  relative viability: 0.641
[23]; first compound 4 µM
  relative viability: 0.452

Source: the supplement of paper PMC10307832
